pIC50: −log10 of the molar value.

For the assay, the target named is cAMP and cAMP-inhibited cGMP 3',5'-cyclic phosphodiesterase 10A (Homo sapiens, UniProt Q9Y233). Kind of assay: PDE10A assay. The essentials:
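Human PDE10A (2 ng/well) preincubated 15 min RT with compound in HEPES pH 7.5, 10 mM MgCl2, BSA, then reacted 15 min with 50 nM [3H]cGMP/cGMP substrate. Stopped with Y-Si SPA beads; bound radioactivity counted, IC50 from four-parameter logistic, pIC50 = −log10(IC50).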
One may read the pIC50 as the negative decadic logarithm of the IC50, by convention in mol/L. High values mean a small IC50, low ones a large IC50. `Cc1nn2ccc(CCc3nc(-c4ccccc4)cn3C)nc2c1C` [US10399985, Example 16] had a negative logarithm of the IC50 (pIC50) of 8.31.
For the molecule `Cc1nc2ccccc2nc1OCc1csc(N2CCOCC2)n1` [Roche-Dataset for PDE10A, Compound 951], the pIC50 was 5.62.
The figure for `Cn1ncc(C(=O)NCc2cc(C(F)(F)F)ccn2)c1C(=O)Nc1ccn2cc(-c3ccccc3)nc2n1` [Roche-Dataset for PDE10A, Compound 1156] is 5.56.
The figure for `CCOC(=O)c1cnn(C)c1C(=O)Nc1ccn2nc(Br)nc2c1` [Roche-Dataset for PDE10A, Compound 936] is 5.46; for `CN(C)C(=O)c1cc(NC(=O)c2nc(C3CC3)ccc2Nc2cncnc2)n(C)n1` [Roche-Dataset for PDE10A, Compound 404] it is 6.35; for `CN(c1nc2cc(NC(=O)c3c(C(=O)N4CCOCC4)cnn3C)ccn2n1)C1CC1` [Roche-Dataset for PDE10A, Compound 418] it is 8.58.
The figure for `CN(C)C(=O)c1cnn(C)c1C(=O)Nc1ccn2cc(-c3cccc(Br)c3)nc2n1` [Roche-Dataset for PDE10A, Compound 319] is 7.40.
For `COc1ccc2c(=O)n(C)c3c(C)nc(C)n3c2c1` [Roche-Dataset for PDE10A, Compound 1111], the pIC50 was 5.60. This pIC50 lies 1.80 log units lower than the previous one.
The figure for `COC(=O)c1cccnc1C(=O)Nc1ccn2nc(-c3ccccc3)nc2c1` [Roche-Dataset for PDE10A, Compound 659] is 5.57; for `CCn1nc(NC(=O)c2c(C(=O)N3CCC3)cnn2C)cc1C1CC1` [Roche-Dataset for PDE10A, Compound 1135] it is 5.21.
The figure for `Cc1ncn(-c2ccccc2)c1C(=O)Nc1cc(-c2ccccn2)nn1C` [Roche-Dataset for PDE10A, Compound 994] is 5.67; for `CN(C)CCn1ccc(NC(=O)c2nc(C3CC3)cnc2Nc2cncnc2)n1` [Roche-Dataset for PDE10A, Compound 828] it is 7.54.
The figure for `CN(C)c1nc(OCc2nc3ccccc3n2C)nc2ccc(Cl)cc12` [Roche-Dataset for PDE10A, Compound 470] is 6.92; for `CNC(=O)c1cc(CCC(=O)O)ccc1NC(=O)c1nc(C2CC2)cnc1Nc1cncnc1` [US8703768, 328] it is 9.41; for `O=C(NCCN1CCOCC1=O)c1nc(C2CC2)cnc1Nc1cncnc1` [Roche-Dataset for PDE10A, Compound 728] it is 5.59.
As for `Cn1ncc(C(=O)N2CCC2)c1C(=O)Nc1cc(C2CCC2)n[nH]1` [Roche-Dataset for PDE10A, Compound 1078], the pIC50 is 5.00.
The figure for `CCc1nc(C)c(C(=O)Nc2cc3nc(-c4ccccc4)[nH]c3cc2C(=O)O)o1` [Roche-Dataset for PDE10A, Compound 424] is 5.87; for `O=C(Nc1cc(Cl)ncn1)c1ccc2cc(-c3ccccc3)nn2c1` [Roche-Dataset for PDE10A, Compound 419] it is 6.60; for `Cn1nc(-c2ccccn2)cc1NC(=O)c1cccn(C)c1=O` [Roche-Dataset for PDE10A, Compound 710] it is 5.36.
The figure for `O=C1c2ccccc2C(=O)N1CCc1nc(-c2ccncc2)no1` [Roche-Dataset for PDE10A, Compound 570] is 4.93.
The figure for `Cc1ncc(C)n2nc(/C=C/c3nc(-c4cccn4C)nn3C)nc12` [Roche-Dataset for PDE10A, Compound 440] is 7.92.
With `Cc1cc(C)n2nc(CCc3nc(N(C)C)nn3C)nc2n1` [Roche-Dataset for PDE10A, Compound 1140], the pIC50 was 6.27.
Molecule `Cn1ncc(C(=O)N2CCOCC2)c1C(=O)Nc1cc2nc(N3CCCC3)nn2cn1` [Roche-Dataset for PDE10A, Compound 426] gave a pIC50 of 8.30.
`Cn1ncc(C(=O)N2CC(F)C2)c1C(=O)Nc1ccn2nc(-c3cccnc3)nc2c1` [Roche-Dataset for PDE10A, Compound 337] showed a pIC50 of 8.94. This pIC50 is 0.64 log units higher than that of the molecule before.
The figure for `CN(C)c1nc(OCc2cccc(N3CCCC3)n2)nc2ccc(Cl)cc12` [6-chloro-n,n-dimethyl-2-((6-(pyrrolidin-1-yl)pyridin-2-yl)methoxy)quinazolin-4-amine] is 8.11; for `Cn1cc(-c2ccccc2)nc1CCc1nc(-c2ccccc2)cc(=O)[nH]1` [Roche-Dataset for PDE10A, Compound 94] it is 6.01.
The figure for `O=C(NCC(F)(F)F)c1nc(C2CC2)cnc1Nc1cncnc1` [Roche-Dataset for PDE10A, Compound 1124] is 5.91; for `Cn1nc(-c2ccccn2)cc1NC(=O)c1cccc2c1OCCO2` [Roche-Dataset for PDE10A, Compound 655] it is 5.00; for `Cc1cc(C#Cc2nc(N3CCCC3)nn2C)nn2c(C)c(C(F)(F)F)nc12` [US9617271, 54] it is 9.19.
The figure for `COC[C@H]1CCCN1c1nc(CCc2nc3c(C)ncc(C)n3n2)n(C)n1` [Roche-Dataset for PDE10A, Compound 249] is 7.92; for `Cn1ncc(C(=O)N2CCC2)c1C(=O)Nc1ccn(CC2CC2)n1` [Roche-Dataset for PDE10A, Compound 1075] it is 6.48; for `O=C(Nc1cccc(N2CCCC2=O)c1)c1nc(C2CC2)ccc1Nc1cncnc1` [Roche-Dataset for PDE10A, Compound 831] it is 7.62.
In turn, `O=C(Nc1cc(-c2ccccn2)no1)c1nc(C2CC2)ccc1Nc1cncnc1` [US8470820, 51] had a pIC50 of 8.41. This pIC50 is 0.79 log units higher than that of the molecule before.
`CC(=O)N1CCC(NC(=O)c2nc(C3CC3)cnc2Nc2cncnc2)CC1` [Roche-Dataset for PDE10A, Compound 993] had a pIC50 of 5.00. This pIC50 lies 3.41 log units lower than the previous one.
The figure for `CN(C)CCn1nccc1NC(=O)c1nc(C2CC2)cnc1Nc1cncnc1` [Roche-Dataset for PDE10A, Compound 857] is 6.50.
The figure for `Cc1nc2ccccc2nc1CCc1nc(-c2ccccc2)cn1CC(F)(F)F` [Roche-Dataset for PDE10A, Compound 72] is 6.75; for `Cn1ncc(C(=O)N(CCO)CCO)c1C(=O)Nc1ccn2nc(-c3ccccc3)nc2c1` [Roche-Dataset for PDE10A, Compound 125] it is 8.40.
The figure for `Cn1ncc(C(=O)N2CCC2)c1C(=O)Nc1cn(-c2cnccn2)cn1` [Roche-Dataset for PDE10A, Compound 906] is 5.61.
Regarding `O=C(Nc1cccc(N2CCS(=O)(=O)CC2)c1)c1nc(C2CC2)cnc1Nc1cncnc1` [Roche-Dataset for PDE10A, Compound 777], the negative-log IC50 (pIC50) is 7.66.
The figure for `CCN(C)C(=O)c1cnn(CCF)c1C(=O)Nc1ccn2cc(-c3ccccc3)nc2n1` [Roche-Dataset for PDE10A, Compound 26] is 5.00; for `O=C(NC1CCOCC1)c1nc(C2CC2)cnc1Nc1cncnc1` [Roche-Dataset for PDE10A, Compound 1059] it is 5.75.
The figure for `CNC(=O)c1cc(Cl)c(C)n2nc(CCc3nc(N4CCCC4)nn3C)nc12` [Roche-Dataset for PDE10A, Compound 273] is 5.21.
On to `CN(C)C(=O)c1cnn(C)c1C(=O)N[C@@H]1CCn2c(nc(-c3ccccc3)c2Cl)C1` [Roche-Dataset for PDE10A, Compound 221], for which the pIC50 is 7.52.
The figure for `CCOC(=O)Cn1nc(-c2ccccn2)cc1NC(=O)c1nc(C2CC2)ccc1Nc1cncnc1` [US8470820, 15] is 8.43.
